Test results as given in publication PMC7265341, “Quantifying CDK inhibitor selectivity in live cells” (Nature Communications, 2020).
Where two headings read alike, the source gives them in different places.

Experiments:
CDK2/Cyclin E1 = CDK2/Cyclin E1 (Homo sapiens, UniProt P24941); assay: NanoBRET live-cell target engagement, CDK2-NanoLuc/Cyclin E1 in HEK-293; assay type: binding; settings: for inhibition at 10 µM: read-out: CDK2/E1 Inhibition at 10µM (%); for CDK2 Occupancy (%): Panel A
CDK17/Cyclin Y = CDK17/Cyclin Y (Homo sapiens, UniProt Q00537); assay: NanoBRET live-cell target engagement, CDK17-NanoLuc/Cyclin Y in HEK-293; assay type: binding; settings: for IC50: read-out: CDK17/Y IC50; for inhibition at 10 µM: read-out: CDK17/Y Inhibition at 10µM (%), 10µM
CDK20/Cyclin H = CDK20/Cyclin H (Homo sapiens, UniProt Q8IZL9); assay: NanoBRET live-cell target engagement, NanoLuc-CDK20/Cyclin H in HEK-293; assay type: binding; settings: read-out: CDK20/H Inhibition at 10µM (%), 10µM
CDK1/Cyclin E1 = CDK1/Cyclin E1 (Homo sapiens, UniProt P06493); assay: NanoBRET live-cell target engagement, CDK1-NanoLuc/Cyclin E1 in HEK-293; assay type: binding; settings: for inhibition at 10 µM: read-out: CDK1/E1 Inhibition at 10µM (%); for IC50: read-out: CDK1/E1 IC50
CDK3/Cyclin E1 = CDK3/Cyclin E1 (Homo sapiens, UniProt Q00526); assay: NanoBRET live-cell target engagement, CDK3-NanoLuc/Cyclin E1 in HEK-293; assay type: binding; settings: for inhibition at 10 µM: read-out: CDK3/E1 Inhibition at 10µM (%); for IC50: read-out: CDK3/E1 IC50
CDK11B/Cyclin L2 = CDK11B/Cyclin L2 (Homo sapiens, UniProt P21127); assay: NanoBRET live-cell target engagement, CDK11B-NanoLuc/Cyclin L2 in HEK-293; assay type: binding; settings: read-out: CDK11b/L2 Inhibition at 10µM (%), 10µM
CDK15/Cyclin Y = CDK15/Cyclin Y (Homo sapiens, UniProt Q96Q40); assay: NanoBRET live-cell target engagement, NanoLuc-CDK15/Cyclin Y in HEK-293; assay type: binding; settings: for inhibition at 10 µM: read-out: CDK15/Y Inhibition at 10µM (%), 10µM
CDK10/Cyclin L2 = CDK10/Cyclin L2 (Homo sapiens, UniProt Q15131); assay: NanoBRET live-cell target engagement, CDK10-NanoLuc/Cyclin L2 in HEK-293; settings: for inhibition at 10 µM: read-out: CDK10/L2 Inhibition at 10µM (%), 10µM
CDK5/CDK5R1 = CDK5/CDK5R1 (Homo sapiens, UniProt Q00535); assay: NanoBRET live-cell target engagement, CDK5-NanoLuc/CDK5R1 in HEK-293; assay type: binding; settings: for inhibition at 10 µM: read-out: CDK5/CDK5R1 Inhibition at 10µM (%); for IC50: read-out: CDK5/CDK5R1 IC50
CDK4/Cyclin D1 = CDK4/Cyclin D1 (Homo sapiens, UniProt P11802); assay: NanoBRET live-cell target engagement, NanoLuc-CDK4/Cyclin D1 in HEK-293; assay type: binding; settings: for inhibition at 10 µM: read-out: CDK4/D1 Inhibition at 10µM (%); for IC50: read-out: CDK4/D1 IC50
Chain of CDK4/Cyclin D1 (P11802 whole entry): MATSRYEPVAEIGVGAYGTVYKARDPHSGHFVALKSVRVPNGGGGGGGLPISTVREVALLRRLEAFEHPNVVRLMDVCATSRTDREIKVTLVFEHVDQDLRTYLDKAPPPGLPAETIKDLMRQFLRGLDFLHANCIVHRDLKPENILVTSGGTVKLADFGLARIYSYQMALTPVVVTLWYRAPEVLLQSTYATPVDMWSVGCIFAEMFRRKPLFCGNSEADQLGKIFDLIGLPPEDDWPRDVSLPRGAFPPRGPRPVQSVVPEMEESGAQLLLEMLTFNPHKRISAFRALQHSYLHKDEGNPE
Chain of CDK4/Cyclin D1 (P24385 whole entry partner): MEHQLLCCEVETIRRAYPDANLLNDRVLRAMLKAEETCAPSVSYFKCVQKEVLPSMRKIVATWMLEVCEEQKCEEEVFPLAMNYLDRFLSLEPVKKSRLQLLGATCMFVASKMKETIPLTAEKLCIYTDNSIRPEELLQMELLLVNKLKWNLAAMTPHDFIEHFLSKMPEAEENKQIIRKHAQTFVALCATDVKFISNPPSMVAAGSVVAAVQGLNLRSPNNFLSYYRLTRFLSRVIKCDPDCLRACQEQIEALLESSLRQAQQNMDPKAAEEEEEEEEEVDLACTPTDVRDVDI

Chain of CDK5/CDK5R1 (Q00535 whole entry): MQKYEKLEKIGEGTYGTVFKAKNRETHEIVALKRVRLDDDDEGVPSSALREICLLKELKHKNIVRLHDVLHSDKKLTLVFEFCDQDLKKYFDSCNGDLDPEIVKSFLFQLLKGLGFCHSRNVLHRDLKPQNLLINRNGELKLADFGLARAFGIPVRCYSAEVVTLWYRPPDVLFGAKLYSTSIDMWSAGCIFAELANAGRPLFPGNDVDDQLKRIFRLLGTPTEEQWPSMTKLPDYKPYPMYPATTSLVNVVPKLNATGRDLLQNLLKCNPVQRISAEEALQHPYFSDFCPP
Chain of CDK5/CDK5R1 (Q15078 whole entry partner): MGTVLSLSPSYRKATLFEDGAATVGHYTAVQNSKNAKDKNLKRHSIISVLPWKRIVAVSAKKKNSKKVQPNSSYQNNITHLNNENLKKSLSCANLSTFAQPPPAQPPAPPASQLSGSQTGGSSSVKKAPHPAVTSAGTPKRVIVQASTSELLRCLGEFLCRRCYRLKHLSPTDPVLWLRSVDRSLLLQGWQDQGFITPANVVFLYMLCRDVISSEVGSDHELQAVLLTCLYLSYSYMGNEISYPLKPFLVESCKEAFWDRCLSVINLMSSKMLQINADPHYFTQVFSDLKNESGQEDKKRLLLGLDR
Chain of CDK10/Cyclin L2 (Q15131 whole entry): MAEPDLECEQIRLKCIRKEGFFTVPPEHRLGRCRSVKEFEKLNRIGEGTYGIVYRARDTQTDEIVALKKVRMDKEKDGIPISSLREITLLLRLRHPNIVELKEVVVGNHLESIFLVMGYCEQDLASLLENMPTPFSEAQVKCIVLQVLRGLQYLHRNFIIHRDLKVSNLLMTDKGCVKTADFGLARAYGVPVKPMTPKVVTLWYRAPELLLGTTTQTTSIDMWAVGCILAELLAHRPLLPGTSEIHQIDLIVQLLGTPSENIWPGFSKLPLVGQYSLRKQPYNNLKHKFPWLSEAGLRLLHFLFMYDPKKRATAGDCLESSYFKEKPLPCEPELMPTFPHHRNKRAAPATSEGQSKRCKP
Chain of CDK17/Cyclin Y (Q00537 whole entry): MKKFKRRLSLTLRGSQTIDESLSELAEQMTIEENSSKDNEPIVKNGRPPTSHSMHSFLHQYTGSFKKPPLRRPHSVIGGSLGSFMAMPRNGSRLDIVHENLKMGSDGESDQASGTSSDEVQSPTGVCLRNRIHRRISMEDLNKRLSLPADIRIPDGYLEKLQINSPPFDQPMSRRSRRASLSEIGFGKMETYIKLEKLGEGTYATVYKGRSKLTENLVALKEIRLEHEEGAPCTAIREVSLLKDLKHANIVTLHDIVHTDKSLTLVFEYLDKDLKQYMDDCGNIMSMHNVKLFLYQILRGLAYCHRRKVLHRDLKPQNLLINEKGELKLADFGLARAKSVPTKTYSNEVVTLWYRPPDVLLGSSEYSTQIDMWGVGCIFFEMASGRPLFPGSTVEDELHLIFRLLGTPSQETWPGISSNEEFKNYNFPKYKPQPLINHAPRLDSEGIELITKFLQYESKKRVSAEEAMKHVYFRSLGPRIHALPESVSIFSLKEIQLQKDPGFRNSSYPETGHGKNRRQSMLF
Chain of CDK17/Cyclin Y (Q8ND76 whole entry partner): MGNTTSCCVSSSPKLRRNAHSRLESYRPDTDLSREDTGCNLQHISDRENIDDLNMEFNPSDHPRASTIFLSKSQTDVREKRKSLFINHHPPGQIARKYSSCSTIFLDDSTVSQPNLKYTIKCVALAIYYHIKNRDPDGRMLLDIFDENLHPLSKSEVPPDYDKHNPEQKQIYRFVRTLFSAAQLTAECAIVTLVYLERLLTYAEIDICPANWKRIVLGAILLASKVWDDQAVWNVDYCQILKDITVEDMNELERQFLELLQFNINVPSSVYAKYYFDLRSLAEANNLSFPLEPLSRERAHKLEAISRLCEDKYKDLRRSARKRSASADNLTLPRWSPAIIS
Chain of CDK11B/Cyclin L2 (P21127 1-782 isoform P21127-2): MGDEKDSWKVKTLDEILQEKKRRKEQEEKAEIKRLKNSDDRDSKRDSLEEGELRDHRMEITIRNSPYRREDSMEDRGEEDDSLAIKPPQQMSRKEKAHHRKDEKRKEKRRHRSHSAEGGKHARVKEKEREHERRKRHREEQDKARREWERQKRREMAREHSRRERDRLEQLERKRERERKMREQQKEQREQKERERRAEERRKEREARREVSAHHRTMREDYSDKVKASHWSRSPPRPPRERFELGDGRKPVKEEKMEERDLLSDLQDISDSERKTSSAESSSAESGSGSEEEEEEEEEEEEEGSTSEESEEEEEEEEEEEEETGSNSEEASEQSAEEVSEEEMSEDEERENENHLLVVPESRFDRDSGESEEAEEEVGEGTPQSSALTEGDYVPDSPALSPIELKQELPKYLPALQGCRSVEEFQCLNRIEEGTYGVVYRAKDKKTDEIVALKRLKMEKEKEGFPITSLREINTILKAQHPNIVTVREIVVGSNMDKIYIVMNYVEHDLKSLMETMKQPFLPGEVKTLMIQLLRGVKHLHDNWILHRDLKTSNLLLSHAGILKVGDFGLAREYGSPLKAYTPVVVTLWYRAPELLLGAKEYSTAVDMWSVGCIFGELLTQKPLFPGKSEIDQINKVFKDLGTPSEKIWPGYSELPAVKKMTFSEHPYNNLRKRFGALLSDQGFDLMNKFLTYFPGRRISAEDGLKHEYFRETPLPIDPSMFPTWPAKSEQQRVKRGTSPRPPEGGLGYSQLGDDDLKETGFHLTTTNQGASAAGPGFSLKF
Chain of CDK15/Cyclin Y (Q96Q40 whole entry): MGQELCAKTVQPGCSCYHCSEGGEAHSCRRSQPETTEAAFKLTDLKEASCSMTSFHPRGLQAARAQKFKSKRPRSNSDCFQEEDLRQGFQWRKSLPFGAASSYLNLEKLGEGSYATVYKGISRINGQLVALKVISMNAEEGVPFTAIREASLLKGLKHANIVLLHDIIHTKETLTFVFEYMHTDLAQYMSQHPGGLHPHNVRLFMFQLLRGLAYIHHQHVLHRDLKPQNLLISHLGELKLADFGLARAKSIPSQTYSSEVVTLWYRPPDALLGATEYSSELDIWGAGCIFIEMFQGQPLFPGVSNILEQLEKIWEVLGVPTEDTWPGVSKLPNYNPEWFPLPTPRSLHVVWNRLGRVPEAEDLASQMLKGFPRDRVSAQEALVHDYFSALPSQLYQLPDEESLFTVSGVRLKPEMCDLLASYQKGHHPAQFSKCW
Chain of CDK15/Cyclin Y (Q8ND76 whole entry partner): as the sequence (Q8ND76 whole entry partner) above
Chain of CDK1/Cyclin E1 (P06493 whole entry): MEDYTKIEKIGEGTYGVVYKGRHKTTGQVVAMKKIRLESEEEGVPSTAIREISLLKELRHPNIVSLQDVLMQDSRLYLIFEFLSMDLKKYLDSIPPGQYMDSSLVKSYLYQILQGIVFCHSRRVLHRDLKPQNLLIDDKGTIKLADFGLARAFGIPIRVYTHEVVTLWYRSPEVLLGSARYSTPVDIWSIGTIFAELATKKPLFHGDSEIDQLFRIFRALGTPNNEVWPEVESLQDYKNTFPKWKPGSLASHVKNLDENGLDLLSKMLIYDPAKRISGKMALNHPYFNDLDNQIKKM
Chain of CDK1/Cyclin E1 (P24864 whole entry partner): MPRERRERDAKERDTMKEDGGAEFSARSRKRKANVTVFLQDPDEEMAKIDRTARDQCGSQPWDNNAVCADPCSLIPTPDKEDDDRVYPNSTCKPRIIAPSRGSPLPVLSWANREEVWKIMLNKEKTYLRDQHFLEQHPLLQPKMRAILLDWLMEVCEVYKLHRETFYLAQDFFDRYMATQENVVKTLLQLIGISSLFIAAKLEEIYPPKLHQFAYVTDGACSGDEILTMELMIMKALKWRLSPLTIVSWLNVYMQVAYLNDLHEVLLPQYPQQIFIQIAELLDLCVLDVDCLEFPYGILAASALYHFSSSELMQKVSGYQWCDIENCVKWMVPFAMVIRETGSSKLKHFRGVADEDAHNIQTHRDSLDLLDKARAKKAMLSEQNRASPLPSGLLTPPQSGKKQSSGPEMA
Chain of CDK3/Cyclin E1 (Q00526 whole entry): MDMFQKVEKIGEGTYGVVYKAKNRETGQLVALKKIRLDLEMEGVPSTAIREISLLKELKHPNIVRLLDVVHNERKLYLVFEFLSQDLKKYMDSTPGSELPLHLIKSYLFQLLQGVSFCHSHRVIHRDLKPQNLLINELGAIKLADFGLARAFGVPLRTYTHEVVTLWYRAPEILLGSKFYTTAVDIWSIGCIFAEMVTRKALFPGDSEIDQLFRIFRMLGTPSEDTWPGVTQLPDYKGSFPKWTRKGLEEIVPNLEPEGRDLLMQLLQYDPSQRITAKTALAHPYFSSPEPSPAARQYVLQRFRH
Chain of CDK3/Cyclin E1 (P24864 whole entry partner): as the sequence (P24864 whole entry partner) above

Q: With `COCCN1CCN(Cc2ccc(-c3n[nH]c4c3C(=O)c3c(NC(=O)NN5CCOCC5)cccc3-4)cc2)CC1` [RGB286638] as the compound, how does the inhibition at 10 µM (CDK2/Cyclin E1; average of experiments) read?
A: 84.4%

Q: What about the inhibition at 10 µM (CDK2/Cyclin E1; independent experiment 1) of the same compound?
A: 83.7%

Q: And the inhibition at 10 µM (CDK2/Cyclin E1; independent experiment 2)?
A: 85.1%

Q: And the “CDK2 Occupancy (%)” value (CDK2/Cyclin E1; LOG10([RGB-286638]) 0.045757 LOG10(µM))?
A: 96.9519%

Q: And the “CDK2 Occupancy (%)” value (CDK2/Cyclin E1; LOG10([RGB-286638]) 0.522879 LOG10(µM))?
A: 98.1016%

Q: And the “CDK2 Occupancy (%)” value (CDK2/Cyclin E1; LOG10([RGB-286638]) 1 LOG10(µM))?
A: 98.1016%

Q: And the “CDK2 Occupancy (%)” value (CDK2/Cyclin E1; LOG10([RGB-286638]) -0.43136 LOG10(µM))?
A: 95.1872%

Q: And the “CDK2 Occupancy (%)” value (CDK2/Cyclin E1; LOG10([RGB-286638]) -0.90849 LOG10(µM))?
A: 90.2941%

Q: And the “CDK2 Occupancy (%)” value (CDK2/Cyclin E1; LOG10([RGB-286638]) -1.38561 LOG10(µM))?
A: 78.6096%

Q: What about the “CDK2 Occupancy (%)” value (CDK2/Cyclin E1; LOG10([RGB-286638]) -1.86273 LOG10(µM)) of the same compound?
A: 57.754%

Q: And the “CDK2 Occupancy (%)” value (CDK2/Cyclin E1; LOG10([RGB-286638]) -2.33985 LOG10(µM))?
A: 30.4813%

Q: What about the “CDK2 Occupancy (%)” value (CDK2/Cyclin E1; LOG10([RGB-286638]) -2.81697 LOG10(µM)) of the same compound?
A: 11.4973%

Q: What about the “CDK2 Occupancy (%)” value (CDK2/Cyclin E1; LOG10([RGB-286638]) -3.29409 LOG10(µM)) of the same compound?
A: 5.615%

Q: What about the “CDK2 Occupancy (%)” value (CDK2/Cyclin E1; LOG10([RGB-286638]) -3.77121 LOG10(µM)) of the same compound?
A: 0.2674%

Q: What about the IC50 (CDK2/Cyclin E1; average (± SEM where n=3), read-out: CDK2/E1 IC50) of the same compound?
A: 14 ± 5 nM

Q: And the IC50 (CDK2/Cyclin E1; independent experiment 1, read-out: CDK2/E1 IC50)?
A: 8.9 nM

Q: And the IC50 (CDK2/Cyclin E1; independent experiment 2, read-out: CDK2/E1 IC50)?
A: 9.8 nM

Q: What about the IC50 (CDK2/Cyclin E1; independent experiment 3, read-out: CDK2/E1 IC50) of the same compound?
A: 23 nM

Q: What about the IC50 (CDK2/Cyclin E1; live HEK-293, 2 h, mean ± S.E.M. (n=3) or mean (n=2), read-out: IC50 for CDK/cyclin complexes, CDK2/E1) of the same compound?
A: 12 to 16 nM

Q: And the IC50 (CDK17/Cyclin Y; average (± SEM where n=3))?
A: 6.6 nM

Q: And the IC50 (CDK17/Cyclin Y; independent experiment 1)?
A: 7.9 nM

Q: What about the IC50 (CDK17/Cyclin Y; independent experiment 2) of the same compound?
A: 5.3 nM

Q: What about the inhibition at 10 µM (CDK17/Cyclin Y; average of experiments) of the same compound?
A: 93.9%

Q: And the inhibition at 10 µM (CDK17/Cyclin Y; independent experiment 1)?
A: 95.7%

Q: And the inhibition at 10 µM (CDK17/Cyclin Y; independent experiment 2)?
A: 92.1%

Q: What about the inhibition at 10 µM (CDK20/Cyclin H; independent experiment 1) of the same compound?
A: 46%

Q: And the inhibition at 10 µM (CDK20/Cyclin H; independent experiment 2)?
A: 84.3%

Q: And the inhibition at 10 µM (CDK1/Cyclin E1; average of experiments)?
A: 87.9%

Q: What about the inhibition at 10 µM (CDK1/Cyclin E1; independent experiment 1) of the same compound?
A: 79.8%

Q: What about the inhibition at 10 µM (CDK1/Cyclin E1; independent experiment 2) of the same compound?
A: 96%

Q: What about the IC50 (CDK1/Cyclin E1; average (± SEM where n=3)) of the same compound?
A: 39 nM

Q: And the IC50 (CDK1/Cyclin E1; independent experiment 1)?
A: 37 nM

Q: And the IC50 (CDK1/Cyclin E1; independent experiment 2)?
A: 41 nM

Q: And the inhibition at 10 µM (CDK3/Cyclin E1; average of experiments)?
A: 91.3%

Q: What about the inhibition at 10 µM (CDK3/Cyclin E1; independent experiment 1) of the same compound?
A: 89.1%

Q: And the inhibition at 10 µM (CDK3/Cyclin E1; independent experiment 2)?
A: 93.6%

Q: What about the IC50 (CDK3/Cyclin E1; average (± SEM where n=3)) of the same compound?
A: 12 nM

Q: And the IC50 (CDK3/Cyclin E1; independent experiment 1)?
A: 14 nM

Q: What about the IC50 (CDK3/Cyclin E1; independent experiment 2) of the same compound?
A: 10 nM

Q: And the inhibition at 10 µM (CDK11B/Cyclin L2; average of experiments)?
A: 32.6%

Q: What about the inhibition at 10 µM (CDK11B/Cyclin L2; independent experiment 1) of the same compound?
A: 19.9%

Q: What about the inhibition at 10 µM (CDK11B/Cyclin L2; independent experiment 2) of the same compound?
A: 45.2%

Q: What about the IC50 (CDK15/Cyclin Y; average (± SEM where n=3), read-out: CDK15/Y IC50) of the same compound?
A: 14 nM

Q: And the IC50 (CDK15/Cyclin Y; independent experiment 1, read-out: CDK15/Y IC50)?
A: 14 nM

Q: And the IC50 (CDK15/Cyclin Y; independent experiment 2, read-out: CDK15/Y IC50)?
A: 13 nM

Q: What about the IC50 (CDK15/Cyclin Y; live HEK-293, 2 h, mean ± S.E.M. (n=3) or mean (n=2), read-out: IC50 for CDK/cyclin complexes, CDK15/Y) of the same compound?
A: 14 nM

Q: What about the inhibition at 10 µM (CDK15/Cyclin Y; average of experiments) of the same compound?
A: 97.4%

Q: And the inhibition at 10 µM (CDK15/Cyclin Y; independent experiment 1)?
A: 96.5%

Q: And the inhibition at 10 µM (CDK15/Cyclin Y; independent experiment 2)?
A: 98.2%

Q: And the IC50 (CDK10/Cyclin L2; CDK10/L2 IC50 (nM), average (± SEM where n=3))?
A: 790 nM

Q: What about the IC50 (CDK10/Cyclin L2; CDK10/L2 IC50 (nM), independent experiment 1) of the same compound?
A: 790 nM

Q: What about the IC50 (CDK10/Cyclin L2; CDK10/L2 IC50 (nM), independent experiment 2) of the same compound?
A: 780 nM

Q: And the IC50 (CDK10/Cyclin L2; IC50 for CDK/cyclin complexes, CDK10/L2, live HEK-293, 2 h, mean ± S.E.M. (n=3) or mean (n=2))?
A: 790 nM

Q: And the inhibition at 10 µM (CDK10/Cyclin L2; average of experiments)?
A: 61.4%

Q: What about the inhibition at 10 µM (CDK10/Cyclin L2; independent experiment 1) of the same compound?
A: 37.8%

Q: What about the inhibition at 10 µM (CDK10/Cyclin L2; independent experiment 2) of the same compound?
A: 85.1%

Q: And the inhibition at 10 µM (CDK5/CDK5R1; average of experiments)?
A: 84.4%

Q: What about the inhibition at 10 µM (CDK5/CDK5R1; independent experiment 1) of the same compound?
A: 71.7%

Q: What about the inhibition at 10 µM (CDK5/CDK5R1; independent experiment 2) of the same compound?
A: 97.2%

Q: What about the IC50 (CDK5/CDK5R1; average (± SEM where n=3)) of the same compound?
A: 75 nM

Q: And the IC50 (CDK5/CDK5R1; independent experiment 1)?
A: 80 nM

Q: And the IC50 (CDK5/CDK5R1; independent experiment 2)?
A: 70 nM

Q: What about the inhibition at 10 µM (CDK4/Cyclin D1; average of experiments) of the same compound?
A: 99.8%

Q: What about the inhibition at 10 µM (CDK4/Cyclin D1; independent experiment 1) of the same compound?
A: 99.7%

Q: And the inhibition at 10 µM (CDK4/Cyclin D1; independent experiment 2)?
A: 100%

Q: And the IC50 (CDK4/Cyclin D1; average (± SEM where n=3))?
A: 10 nM

Q: What about the IC50 (CDK4/Cyclin D1; independent experiment 1) of the same compound?
A: 9.6 nM

Q: And the IC50 (CDK4/Cyclin D1; independent experiment 2)?
A: 11 nM
